Source: patent US9012410B2, “Method of treating intrauterine inflammation” (Case Western Reserve University, priority 2006, dated 2015)

Tests used:
mice = conditions: literature (Elovitz et al., 2006); cited from earlier work
human TLR2 = target: T1, human TLR2 (Homo sapiens, UniProt O60603+Q15399); assay: IL-8 expression from HEK293/hTLR2 cells by ELISA; format: cell-based; conditions: 24-h incubation, varying concentrations
T1 construct: host or cells: HEK293
Method: (§1) HEK293 or HEK293/hTLR2 and HEK293/hTLR4/MD2/CD14, were seeded into 96-well plates at a density of 50,000 cells/well and allowed to grow overnight. The cells were then incubated with and N-palmitoyl(S)-[2,3-bis(palmitoyloxy)-(2, RS)-propyl]-Cys-Scr-Lys4 (Pam3CSK4), ultrapure Escherichia coli LPS, or fresh cultures of F. nucleatum 12230 at the indicated doses followed by a 24-h incubation. The supernatant was harvested and centrifuged and the amount of IL-8 secreted was determined by ELISA.
(§2) Immunlon flat-bottom 96-well microliter plates (Thermo Electron, Mass) were coated with goat anti-human IL-8 Ab (4 μg/ml; R&D System) in 100 μl of coating buffer (0.05 M carbonate buffer (pH 9.6)). After overnight incubation at 4° C., the plates were washed six times with washing buffer, i.e., 0.05% Tween 20 in PBS (Sigma-Aldrich), followed by an overnight incubation in blocking buffer (1% BSA in PBS) at 4° C. The plates were washed four times before an aliquot of 100 μl of diluted mammalian cell culture supernatant or human IL-8 (R&D Systems, Minn) were added to each well and incubated overnight at 4° C. The plates were washed, followed by 3-h incubation with polyclonal rabbit anti-human 11,-8 Ab (1/1000; Endogen) at room temperature. […] The light absorbance was measured at 450 nm on a Bio-Rad Model 680 microplate reader. […]

human TLR4/MD2/CD14 = target: T2, human TLR4/MD2/CD14 (Homo sapiens, UniProt O00206+Q9Y6Y9); assay: IL-8 expression from HEK293/hTLR4/MD2/CD14 cells by ELISA; format: cell-based; conditions: 24-h incubation, varying concentrations
T2 construct: host or cells: HEK293
T2 sequence (O00206 24-839): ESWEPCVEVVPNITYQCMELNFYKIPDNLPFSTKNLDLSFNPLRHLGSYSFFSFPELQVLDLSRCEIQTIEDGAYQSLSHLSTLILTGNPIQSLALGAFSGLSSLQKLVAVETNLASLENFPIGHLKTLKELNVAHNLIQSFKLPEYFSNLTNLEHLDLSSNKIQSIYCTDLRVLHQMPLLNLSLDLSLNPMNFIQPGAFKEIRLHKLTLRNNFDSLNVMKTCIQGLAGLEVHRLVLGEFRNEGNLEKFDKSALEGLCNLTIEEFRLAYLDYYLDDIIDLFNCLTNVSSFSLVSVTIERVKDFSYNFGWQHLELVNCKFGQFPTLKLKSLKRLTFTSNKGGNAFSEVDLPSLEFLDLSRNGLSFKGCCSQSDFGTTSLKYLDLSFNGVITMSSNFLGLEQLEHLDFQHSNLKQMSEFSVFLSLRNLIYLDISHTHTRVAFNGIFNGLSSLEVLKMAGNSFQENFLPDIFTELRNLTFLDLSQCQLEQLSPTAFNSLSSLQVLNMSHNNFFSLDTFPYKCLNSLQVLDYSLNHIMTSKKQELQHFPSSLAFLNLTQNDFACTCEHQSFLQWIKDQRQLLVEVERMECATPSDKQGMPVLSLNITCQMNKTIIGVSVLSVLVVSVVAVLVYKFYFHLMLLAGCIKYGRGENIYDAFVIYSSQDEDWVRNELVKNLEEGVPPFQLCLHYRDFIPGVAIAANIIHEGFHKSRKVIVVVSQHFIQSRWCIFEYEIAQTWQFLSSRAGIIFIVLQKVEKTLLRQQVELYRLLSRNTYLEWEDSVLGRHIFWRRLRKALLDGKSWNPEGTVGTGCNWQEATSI
T2 sequence (Q9Y6Y9 19-160): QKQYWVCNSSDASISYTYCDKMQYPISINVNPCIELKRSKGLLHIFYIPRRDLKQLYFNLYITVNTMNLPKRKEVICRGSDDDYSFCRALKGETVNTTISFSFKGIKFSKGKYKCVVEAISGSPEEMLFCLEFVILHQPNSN
Method: as §1, §2

T1 sequence (O60603 21-784): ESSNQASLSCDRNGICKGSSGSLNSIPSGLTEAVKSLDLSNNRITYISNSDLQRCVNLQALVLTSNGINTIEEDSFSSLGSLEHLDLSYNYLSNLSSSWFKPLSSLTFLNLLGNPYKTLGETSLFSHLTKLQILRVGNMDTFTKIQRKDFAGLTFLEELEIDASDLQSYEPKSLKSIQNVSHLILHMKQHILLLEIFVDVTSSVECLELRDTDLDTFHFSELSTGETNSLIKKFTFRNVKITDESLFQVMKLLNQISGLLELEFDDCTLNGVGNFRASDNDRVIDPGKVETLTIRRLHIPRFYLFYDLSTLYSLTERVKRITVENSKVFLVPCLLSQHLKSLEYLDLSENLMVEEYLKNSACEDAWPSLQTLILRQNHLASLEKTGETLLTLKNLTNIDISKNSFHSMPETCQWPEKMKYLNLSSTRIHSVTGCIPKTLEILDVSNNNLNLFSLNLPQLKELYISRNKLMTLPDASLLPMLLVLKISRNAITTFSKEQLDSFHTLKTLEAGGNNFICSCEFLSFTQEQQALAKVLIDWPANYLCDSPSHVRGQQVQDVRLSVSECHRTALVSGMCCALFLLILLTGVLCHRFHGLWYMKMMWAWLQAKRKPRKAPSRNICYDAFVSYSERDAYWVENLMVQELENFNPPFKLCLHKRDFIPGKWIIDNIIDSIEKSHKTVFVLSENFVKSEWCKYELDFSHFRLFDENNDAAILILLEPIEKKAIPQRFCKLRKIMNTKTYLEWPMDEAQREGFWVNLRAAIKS
T1 sequence (Q15399 25-786): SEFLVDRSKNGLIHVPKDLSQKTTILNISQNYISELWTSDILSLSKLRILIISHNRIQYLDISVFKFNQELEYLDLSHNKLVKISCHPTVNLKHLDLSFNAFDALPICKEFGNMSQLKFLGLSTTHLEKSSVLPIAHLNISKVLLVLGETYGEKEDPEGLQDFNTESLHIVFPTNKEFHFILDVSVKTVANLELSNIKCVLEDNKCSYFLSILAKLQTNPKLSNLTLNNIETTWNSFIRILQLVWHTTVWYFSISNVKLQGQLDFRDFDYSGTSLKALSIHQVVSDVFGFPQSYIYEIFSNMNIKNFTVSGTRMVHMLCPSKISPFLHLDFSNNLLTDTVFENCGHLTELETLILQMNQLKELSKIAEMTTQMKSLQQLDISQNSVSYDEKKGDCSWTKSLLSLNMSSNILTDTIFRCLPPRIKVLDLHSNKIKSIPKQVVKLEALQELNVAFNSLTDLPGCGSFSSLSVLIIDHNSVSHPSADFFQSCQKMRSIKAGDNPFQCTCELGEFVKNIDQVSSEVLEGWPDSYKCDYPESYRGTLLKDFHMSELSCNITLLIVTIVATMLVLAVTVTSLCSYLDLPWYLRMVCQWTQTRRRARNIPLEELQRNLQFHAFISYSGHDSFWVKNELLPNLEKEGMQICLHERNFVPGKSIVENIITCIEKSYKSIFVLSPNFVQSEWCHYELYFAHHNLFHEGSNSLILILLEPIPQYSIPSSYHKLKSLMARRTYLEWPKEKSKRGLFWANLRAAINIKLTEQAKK

Compound | maternal morbidity in mice (mice) | activation of TLR2 (IL-8 expression) (human TLR2) | activation of TLR4 (IL-8 expression) (human TLR4/MD2/CD14)
CCCCCC(=O)O[C@]1(C(C)=O)CC[C@H]2[C@@H]3CCC4=CC(=O)CC[C@]4(C)[C@H]3CC[C@@]21C [17-α hydroxyprogesterone caproate] | significant maternal morbidity | – | –
N-palmitoyl(S)-[2,3-bis(palmitoyloxy)-(2, RS)-propyl]-Cys-Scr-Lys4 [Pam3CSK4] | – | only activated their respective receptors | not vice versa
